By MIC is commonly meant the lowest concentration that inhibits growth of the organism.

This note sets out measurements from PMC6737244, “Cathelicidin Peptides Restrict Bacterial Growth via Membrane Perturbation and Induction of Reactive Oxygen Species” (mBio, 2019).

Ends that are not written are not given here.

The subject of assay [1] is V. cholerae. Kind of assay: CellROX ROS production, single-cell imaging. The format is cell-based, Vibrio cholerae. Particulars: 100 nM, 2.5 μM CellROX. The source says:
The assortment of E. coli genes that were differentially expressed after peptide treatment led us to suspect that B22a induced oxidative stress. Oxidative stress is often transient and challenging to detect due to a suite of enzymes in bacterial cells that can rapidly reduce oxidative species. We monitored the real-time accumulation of ROS in single cells of V. cholerae in the presence of CellROX, a cell-permeable redox dye that reacts with O2^– and ^·OH ([30]). CellROX is nonfluorescent in the reduced state, but upon oxidation, it binds double-stranded DNA and fluoresces strongly. Images were captured at 15-s intervals over 40 min, twice the doubling time of V. cholerae under these conditions. […] The number of fluorescent cells increased following treatment with 25, 50, or 100 nM B22 or B22a (Fig. S4), and a fluorescence burst due to the oxidation of CellROX was observed within 15 s of B22 treatment (Fig. 7A, bottom). The signal intensity peaked over the next 30 s and then dissipated after about 1 min. The loss in fluorescence intensity was followed by an abrupt shortening in cell length, a dramatic decrease in cell contrast, and bleb formation roughly 45 s later.

In a further assay the test system is E. faecalis. Kind of assay: CellROX ROS production, imaging. The assay is classed as cell-based, Enterococcus faecalis. As to conditions: 500 nM, 2.5 μM CellROX. From the text:
The growth rate of the sodA mutant in the absence of peptide was lower than that of the wild type (WT), underscoring the importance of effectively controlling O2^− accumulation.

The test system of assay [2] is V. cholerae. The experiment in a line: Survival (CFU) with B22 with or without ROS scavengers or SodA.
Protocol: The membrane-permeable iron chelating agent 2,2′-dipyridyl (DP) efficiently chelates free Fe^2+ and the scavenger thiourea (TU) directly quenches hydroxyl radicals generated by the Fenton reaction.
To inhibit Fenton chemistry in the cytoplasm, cells were pretreated with 75 μM concentration of the membrane-permeable agent 2,2′-dipyridyl (DP), which efficiently chelates free Fe^2+, and 150 μM concentration of the scavenger thiourea (TU), which directly quenches Fenton-generated hydroxyl radicals ([50]). These concentrations of DP and TU were confirmed not to affect bacterial growth.
For assay [3], the system named is Escherichia coli J53 AzideR. The format is cell-based. Particulars: CAMHB, 16 to 18 h, at least three independent assays. On the procedure: (§1) MICs were determined by using the broth microdilution method based on the general recommendations of the Clinical and Laboratory Standards Institute (CLSI). Bacteria were grown in CAMHB overnight. They were then diluted into fresh medium the following morning and grown to early log phase. The cultures were then diluted to approximately 5 × 10^5 CFU ml^−1, and 100 μl was added to sterile 96-well polypropylene microtiter plates (Corning, NY, USA) preloaded with twofold dilutions of antimicrobial peptides. […] All MIC assays were determined from at least three independent assays.

For assay [4], the system named is Pseudomonas aeruginosa PAO1 oprD. The format is cell-based. As to conditions: CAMHB, 16 to 18 h, at least three independent assays. The procedure:
as §1

A further assay relates to Vibrio cholerae AC53. The assay is classed as cell-based. As to conditions: CAMHB, 16 to 18 h, at least three independent assays. On the procedure: as §1
Another assay deals with Vibrio cholerae C6075. The assay is classed as cell-based. As to conditions: CAMHB, 16 to 18 h, at least three independent assays. The procedure:
as §1

Another assay deals with Escherichia coli IU342. Kind of assay: MIC, broth microdilution. The assay is classed as cell-based. Particulars: CAMHB, 16 to 18 h, at least three independent assays. The procedure:
as §1
Background: Broth dilution looks for growth in wells or tubes with falling amounts of substance.

The test system of a further assay is V. cholerae biofilms. Kind of assay: Established biofilm in flow cell, LIVE/DEAD staining.

As to FRKKLKKLFKKLSPVIPLLKLG [B22], in the assay on V. cholerae [1], the “Time to fluorescence burst due to oxidation of CellROX” value was no more than 15 s. The CellROX oxidative signal entry in the assay on E. faecalis was “fluorescent burst”. For the same substance, in the assay with V. cholerae [2] (2.5 μM B22), the “Killing of V. cholerae overproducing SodA” value was “completely suppressed”. In addition, the “Decrease in survival of V. cholerae overexpressing SodA” value with V. cholerae [2] (5 μM B22) turned out to be 10 fold. This substance returned a Decrease in survival with V. cholerae [2] (V. cholerae, 2.5 μM B22) of 3 log10 units. The “Increase in survival by preincubation with 75 μM DP and 150 mM TU in combination” value in the assay with V. cholerae [2] (V. cholerae, prior to addition of B22) was found to be 13 fold.

For the substance FRKKLKKLFKKLSPVIPLLKLG-NH2 [B22a], the MIC in [3] came to 2 µM; in assay [4] it was 2 µM; in the assay with Vibrio cholerae AC53, 4 µM; against Vibrio cholerae C6075, 4 µM; against Escherichia coli IU342, 2 µM. Also, the Overall biofilm biomass entry in the assay on V. cholerae biofilms is on record as “decreased the overall biomass by half”. Besides, the “Cell death in biofilm” value in the assay with V. cholerae biofilms (at 6 h) was determined as 50%.
